Earlier results as cited in patent US20100310597A1, “ANTI-OFLOXACIN MONOCLONAL ANTIBODY AND IMMUNOASSAY OF OFLOXACIN USING THE SAME” (SEKISUI MEDICAL CO., LTD, priority 2007, published 2010).

Conditions: background statement

C[C@H]1COc2c(N3CCN(C)CC3)c(F)cc3c(=O)c(C(=O)O)cn1c23 [levofloxacin, (−)-(S)-9-fluoro-2,3-dihydro-3-methyl-10-(4-methyl-1-piperazinyl)-7-oxo-7H-pyrido[1,2,3-de][1,4]benzoxazine-6-carboxylic acid]
Antibiotic activity relative to ofloxacin: approximately twice
